Test results from patent US20240285497A1, “METHOD FOR EVALUATING AN ABILITY OF A TEST SAMPLE TO TRIGGER A FOREIGN BODY REACTION IN THE SKIN, A METHOD FOR SCREENING A SUBSTANCE HAVING AN ABILITY TO INHIBIT A FOREIGN BODY REACTION IN THE SKIN, AND AN AGENT FOR INHIBITING A FOREIGN BODY REACTION IN THE SKIN” (priority 2021, published 2024).

What was measured:
[1] = tested on: matrix metalloprotease 9 (MMP9) mRNA; experiment: MMP9 mRNA expression in HaCaT cells contacted with test substance, quantitative PCR; assay type: cell-based, human; details: HaCaT cells, 24 hours
Method: In this experiment, the effect of Fraglide-1 on the expression of MMP9 in the level of mRNA was examined first. Specifically, HaCaT cells were treated with Fraglide-1 in the same manner as described in Experiment 3-1 except that HaCaT cells were incubated for 24 hours in the medium containing 0 μM, 1 μM, 10 μM, and 100 μM of Fraglide-1 instead of being incubated for 24 hours in the medium containing both FICZ and Fraglide-1. The total RNA was then extracted, cDNA was prepared, and the quantitative PCR was performed using the obtained cDNA. Herein, the procedure of the quantitative PCR was the same as described in Experiment 3-1 except that the primers shown in below Table 4 were used. In this experiment, the expression of MMP2 mRNA was also quantified in addition to MMP9 mRNA. MMP2 is known as a MMP which is not transcriptionally regulated by a xenobiotic responsive element (XRE).
(§1) In FIG. 9 and FIG. 10, the results obtained for each sample were shown as a relative value, with the mRNA expression level of MMP9 or MMP2 in the HaCaT cells incubated for 24 hours in DMEM medium without FICZ (i.e., the non-treated HaCaT cells) set to 1. The results shown in FIG. 9 and FIG. 10 were the mean obtained from three independent experiments. The error bars represent the standard deviation (SD).
Next, experiments were performed to inhibit MMP9 and MMP2 in HaCaT cells using retinoic acid (CAS RN: 302-79-4) and nicotinamide (CAS RN: 98-92-0), which are known to be substances having anti-wrinkle effect. Briefly, HaCaT cells were made in contact with retinoic acid and nicotinamide in the same manner as in Experiment 4-1 except that retinoic acid and nicotinamide were used instead of Fraglide-1. Then, the total RNA was extracted, cDNA was prepared, and the quantitative PCR was carried out using the obtained cDNA.
as §1, with “FIG. 12” for “FIG. 9”, “FIG. 13,” for “FIG. 10,”, “medium containing neither retinoic acid nor nicotinamide” for “medium without FICZ”, “FIG. 13” for “FIG. 10”

[2] = tested on: matrix metalloprotease 9 mRNA; experiment: MMP9 mRNA expression in HaCaT cells contacted with FICZ, quantitative PCR; assay type: cell-based, human; details: 24 hours
Method: First, HaCaT cells (CLI; Catalogue No.: 300493) were suspended in a DMEM medium at the density of 1×10^5 cell/mL, and 100 μL of the thus obtained suspension was added to each well of white 96 well plates (Thermo Fisher Scientific, MA, U.S.A.; Catalogue No.: 136102) so that the number of the cells in each well was 10,000 cells/well. In accordance with a conventional method, the cells were incubated at 37° C. for 24 hours in the presence of 5% CO2. Thereafter, the DMEM medium was removed, and 100 μL of a new DMEM medium containing FICZ at a predetermined concentration (i.e., 5 nM, 50 nM, 500 nM, and 5,000 nM) was added, followed by further incubation for 24 hours at 37° C. and 5% CO2. Meanwhile, negative controls were prepared by adding 100 μL of a DMEM medium containing no FICZ instead of the DMEM medium containing FICZ, which were also incubated for 24 hours at 37° C. and 5% CO2. […]
Quantitative PCR was carried out by using THUNDERBIRD Next SYBR qPCR Mix (Toyobo Co., Ltd., Osaka, Japan; Catalogue No. QPX-201) and StepOne Real-Time PCR System (Thermo Fisher Scientific, MA, USA). […] The reaction solution was used for quantitative PCR. Based on Ct (cycle threshold) value obtained by quantitative PCR, an amount of mRNA of each target gene was obtained. […]

Row | Compound | decrease of expression level of MMP9 mRNA compared to medium without Fraglide-1 ([1]; 1 μM) | decrease of expression level of MMP9 mRNA compared to medium without Fraglide-1 ([1]; 10 μM) | decrease of expression level of MMP9 mRNA compared to medium without Fraglide-1 ([1]; 100 μM) | concentration necessary to observe a significant increase in the expression level of MMP9 mRNA [2] | expression level of MMP9 mRNA, dependence on concentration ([2]; FICZ 5-5,000 nM)
1 | O=C1C=C(c2ccccc2)C(O)O1 (centres unmarked) [Fraglide-1, 5-hydroxy-4-phenyl-2(5H)butenolide] | approximately 42% | ~52% | ~80% |  | 
2 | 6-formylindolo[3,2-b] carbazole [FICZ] |  |  |  | about 5000 nM | increased along with the concentration of FICZ
